Patent publication EP4728880A1, “CORDYCEPS SINENSIS FERMENTATION COMPOSITION” (Hangzhou Zhongmeihuadong Pharmaceutical Jiangdong Co., Ltd, priority 2023, dated 2024)
Where two headings read alike, the source gives them in different places.

Key:
[1] = Hydroxyl radical scavenging rate (Fenton colorimetric method); type: biochemical
Text: IV. Detection of hydroxyl radical scavenging rate (Fenton colorimetric method)
H2O2/Fe^2+ produces a hydroxyl radical through a Fenton reaction, Fe^2+ is oxidized into Fe^3+, and red phenanthroline-Fe^2+ is oxidized into colorless phenanthroline-Fe^3+, so that the maximum absorption peak of the phenanthroline-Fe^2+ disappears at 536 nm. The absorbance change at 530-540 nm may be determined by a spectrophotometer. Thus, content change of the hydroxyl radical can be calculated, that is, the hydroxyl radical scavenging rate or scavenging capacity of the sample can be calculated.
• 1. 0.2 g of mycelia powder was weighed; 2 mL of purified water was added; the mycelia powder and the water were uniformly mixed; the mixture was placed at a room temperature for standing for 4 h; the solution was centrifuged at 10000 rpm for 10 min; and the supernatant was taken for later use. • 2. Other samples served as reference solutions.
The spectrophotometer was started for preheating for 30 min; the wavelength was adjusted to 536 nm; and the purified water was subjected to zero setting.
A blank tube, an undamaged tube, a damaged tube, a control tube and a determination tube were set according to the following table; the solutions were added in sequence; and the solutions were uniformly mixed and placed in a water bath at 37°C for 1 h.
(§1) Calculation: To-be-tested sample•OH scavenging rate (%)=[(A3-A3')-(A2-A0)]/(A1-A2)×100% • V. Detection methods of adenosine, mannitol, total amino acid content and water were conducted according to the detection method under the fermented Cordyceps sinensis. mycelia powder item in accordance with National Drug Standards. • VI. Detection method of tyrosinase inhibition rate • 1. Preparation of a solution: • (1) Preparation of a PBS: 3.4022 g of potassium dihydrogen phosphate and 5.7055 g of potassium phosphate dibasic trihydrate were respectively weighed and then dissolved with an appropriate amount of distilled water; the volume was fixed in a 1000 mL volumetric flask; the solution was shaken up to obtain the PBS having a pH value of 6.81 and a concentration of 0.05 mol·L-1, and the PBS was kept in a dark place at 4°C in a refrigerator. • (2) Preparation of an L-Dopa solution: 0.0395 g of L-Dopa was precisely weighed and dissolved with the prepared PBS; the solution was transferred into a 100 mL volumetric flask; the volume was fixed; the solution was shaken up and subjected to ultrasonic treatment to obtain the L-Dopa solution of 2 mmol·L-1. The solution was used when prepared. • (3) Preparation of a TYR ([…]) solution: 25 KU of the TYR was totally dissolved with a small amount of PBS; the solution was repeatedly washed for several times; the washing liquid was transferred into the […] volumetric flask; the volume was fixed with the PBS; the liquid was shaken up to obtain a TYR solution of 250 U·mL-1; then the mother solution was diluted to 125 U·mL-1; and the solution was preserved at -20°C in the refrigerator for later use. • 2. Preparation of samples: 250 mg/ml of an erythritol mother solution: 2.5 g of erythritol was weighed, and 10 ml of purified water was added; 250 mg/ml of a mannitol mother solution: 7.5 g of mannitol was weighed, 30 ml of purified water was added, the mixture was heated and dissolved; and the solution was diluted into the needed concentration according to each reaction system and then added into the detection system. • 3. Determination of the sample on TYR inhibitory activity

[2] = cited from earlier work
tyrosinase = test: Tyrosinase inhibition rate (L-Dopa substrate, absorbance at 475 nm); type: biochemical; conditions: combination of both amounts, negative = activation rate
Procedure: as §1
The reaction system was shown as Table 4.2. […] A calculation formula of the inhibition rate was as follows: when the calculated result was negative, the absolute value of the negative was an activation rate.
Inhibition rate = ((A1−A2)−(A3−A4))/(A1 −A2) × 100% [formula] • A1: absorbance of a reaction solution with TYR instead of the sample determined at 475 nm; • A2: absorbance of a reaction solution without the sample nor the TYR determined at 475 nm; • A3: absorbance of a reaction solution with both the sample and the TYR determined at 475 nm; • A4: absorbance of a reaction solution with the sample instead of the TYR determined at 475 nm.

[3] = in water, at 25°C; cited from earlier work
[4] = cited from earlier work; remark: listed apart in the source
[5] = EGT 0.4 ml (0.02 mg/ml), Adenosine 0.4 ml (0.02 mg/ml), combination 0.2 ml (0.02 mg/ml) + 0.2 ml (0.02 mg/ml)
[6] = Erythritol 12.5 mg (6.25 mg/ml), Adenosine 0.15 ml (0.75 mg/ml), combination of both amounts
[7] = Erythritol 12.5 mg (6.25 mg/ml), Adenosine 0.15 ml (2.5 mg/ml), combination of both amounts
[8] = Erythritol 0.75 mg (3.75 mg/ml), Mannitol 1.25 mg (6.25 mg/ml)
[9] = Erythritol 1.25 mg (6.25 mg/ml), Mannitol 1.25 mg (6.25 mg/ml)
[10] = Erythritol 1.75 mg (8.75 mg/ml), Mannitol 2.5 mg (12.5 mg/ml)
[11] = Erythritol 0.75 mg (3.75 mg/ml), Mannitol 2.5 mg (12.5 mg/ml), combination of both amounts
[12] = Erythritol 1.5 mg (7.5 mg/ml), Mannitol 2.5 mg (12.5 mg/ml), combination of both amounts
[13] = Erythritol 1.75 mg (8.75 mg/ml), Mannitol 2.5 mg (12.5 mg/ml), combination of both amounts
[14] = Erythritol 2 mg (10 mg/ml), Mannitol 2.5 mg (12.5 mg/ml), combination of both amounts
[15] = Erythritol 2.5 mg (12.5 mg/ml), Mannitol 2.5 mg (12.5 mg/ml), combination of both amounts

With `C[N+](C)(C)[C@@H](Cc1c[nH]c(=S)[nH]1)C(=O)[O-]` [EGT, Ergothioneine] the “OH clearance rate (%)” value [1, 5] was -5.70% and the “OH clearance rate (%)” value ([1]; EGT 0.4 ml (0.05 mg/ml), Erythritol 0.4 ml (0.05 mg/ml), combination 0.2 ml (0.05 mg/ml) + 0.2 ml (0.05 mg/ml)) was 2.08%.
For `Nc1ncnc2c1ncn2[C@@H]1O[C@H](CO)[C@@H](O)[C@H]1O` [Adenosine, adenosine], the “OH clearance rate (%)” value [1, 5] was 0.00%, the “OH clearance rate (%)” value [1, 6] was 10.57% and the “OH clearance rate (%)” value [1, 7] was 7.17%.
In the case of `OCC(O)C(O)CO` (centres unmarked) [Erythritol, 1,2,3,4-butanetetraol], the intestinal tolerance ([2]; children aged 4-6 years, beverages containing 15 g) is given as “the diarrhea and/or a severe intestinal symptom is not observed”, the intestinal tolerance ([2]; healthy volunteers aged 18-24 years, 20-35 g in a liquid form) is given as “good intestinal tolerance without any adverse symptom” and the intestinal tolerance ([2]; healthy volunteers aged 18-24 years, intake of 50 g) is given as “symptoms such as diarrhea and nausea were observed”. The “Tyrosinase inhibition rate (%)” value (tyrosinase; [8]) was -1.06%, the “Tyrosinase inhibition rate (%)” value (tyrosinase; [9]) was 1.71% and the “Tyrosinase inhibition rate (%)” value (tyrosinase; [10]) was 6.39%. For the same compound, the “OH clearance rate (%)” value [1, 11] was 5.14%, the “OH clearance rate (%)” value [1, 12] was 2.44% and the “OH clearance rate (%)” value [1, 13] was 11.76%. For the same compound, the “OH clearance rate (%)” value [1, 14] was 20.15%, the “OH clearance rate (%)” value [1, 15] was 11.45% and the “OH clearance rate (%)” value [1, 6] was -8.17%. For the same compound, the “OH clearance rate (%)” value [1, 7] was -5.8%, the solubility [3] was 37% and the “absorbed in small intestine via passive diffusion” value ([4]; after ingestion by a human body) was 80-90%. The “absorbed erythritol oxidized into erythrose in blood” value ([4]; human body, share of the absorbed amount) was 5-10%.
In the case of `OC[C@@H](O)[C@@H](O)[C@H](O)[C@H](O)CO` [Mannitol, D-mannitol], the “Tyrosinase inhibition rate (%)” value (tyrosinase; [8]) was 3.62%, the “Tyrosinase inhibition rate (%)” value (tyrosinase; [9]) was 2.51% and the “Tyrosinase inhibition rate (%)” value (tyrosinase; [10]) was 2.51%. The “OH clearance rate (%)” value [1, 11] was 17.91%, the “OH clearance rate (%)” value [1, 12] was 7.48% and the “OH clearance rate (%)” value [1, 13] was 7.48%. For the same compound, the “OH clearance rate (%)” value [1, 14] was 7.48% and the “OH clearance rate (%)” value [1, 15] was 7.48%.
